Data: US20110217293A1, “Uses of morelloflavone” (priority 2008, published 2011)
Values joined by “and” are separate entries in the source; they are usually repeats but may differ in a detail not shown here. Equal values may be shown once. “Also recorded” adds a separate entry of the source.

Tests used:
[1] = test system: focal adhesion kinase (FAK); test: Western blot, phosphorylation of FAK; assay type: cell-based, mouse; conditions: low concentrations (0.1 & 1 mM), 5 min
Description: For the evaluation of phosphorylated FAK and c-Src, Western blot analyses were performed as described (15). Briefly, vascular smooth muscle cells were seeded on 10-cm dishes, treated with various concentrations of morelloflavone for 5 min, and harvested into RIPA buffer with protease inhibitor cocktails. Cleared cell lysates ([…] of protein) were incubated with anti-FAK or anti-c-Src antibodies at 4° C. for 1 hr in a final volume of 1 mL RIPA buffer, and incubated for another 1 hr with protein A/G agarose beads (Santa Cruz; SCBT sc-2003). Immunoprecipitated proteins were eluted into SDS-loading 7 buffer and subjected to 12% SDS-PAGE and immunoblotting using anti-FAK (Santa Cruz; A-17; sc-557) and anti-c-Src (Santa Cruz; SRC-2; sc-18) antibodies for total FAK and c-Src, respectively, and anti-phosphotyrosine antibody (Santa Cruz; PY-20; sc-508) for phosphorylated FAK and c-Src. Densitometric analyses were performed using Adobe Photoshop (Adobe Systems Incorporated, San Jose, Calif.).

apoE−/− mice = test: Mouse carotid artery injury assay (morphometry, TUNEL, Ki-67, p-ERK staining); assay type: in vivo; conditions: for External elastic lamina area / Internal elastic lamina area / Luminal area / Medial area / Neointimal area: 0.15% diet
Description: The carotid artery injury assay was performed as described by Kuhel (16). Male apoE−/− mice were obtained from Jackson Laboratory (Bar Harbor, Me.) and maintained on a 12 hour light/dark cycle. All animal experimentation protocols were performed under institutional guidelines of animal welfare, in accordance with NIH guidelines. Mice were fed either normal rodent chow diet (5001, LabDiet) (n=10) or normal chow diet containing 0.15% morelloflavone (w/w) (n=9). This diet corresponded to 200 mg/kg morelloflavone if a 30 gm mouse consumes 4 grams of chow. Mice were placed on these diets for 7 days before they underwent carotid artery denudation by the insertion of an epoxy resin (Epon) probe as described (16).
Briefly, the entire length of the left carotid artery was exposed and the distal bifurcation of the carotid artery was looped proximally and ligated distally with a 7-0 suture. A transverse arteriotomy was made between the 7-0 silk sutures and the resin probe was inserted, advanced toward the aortic arch, and withdrawn 5 times. The probe was then removed, the proximal 7-0 suture was ligated, a 6-0 suture was secured, and the incision was closed with 5-0 sterile surgical gut. After surgery, mice were maintained on these diets 9 for 14 days before they were euthanized. After blood was sampled, the arteries of these mice were perfusion-fixed with 10% buffered formalin (pH 7.0) solution at a constant pressure of 100 mm Hg. The entire neck from each mouse was dissected, fixed further in 10% buffered formalin, decalcified, and then embedded in paraffin. Identical whole neck cross sections of […] were made from the distal side of the neck beginning at the point of the distal 7-0 ligature. Whole neck sections were used to evaluate both the injured and the uninjured control vessels on the same section. For each mouse, the 4 levels of serial sections were taken at […] intervals. These sections were stained by Verhoeff-van Gieson (VVG) staining and subjected to morphometric analyses. Images were digitized and captured using a Sony video connected to a personal computer.
(§1) Measurements were performed at a magnification of 200 using a Scion Image analysis computer program (Frederick, Md.). Data were obtained from the first 2 levels where endothelial denudation occurred. For each artery, the luminal area, area inside the internal elastic lamina (IELA), and the area encircled by external elastic lamina-IELA were measured. The intimal area (IA) was calculated as the IELA minus luminal area. For the determination of serum morelloflavone levels, animal sera were first digested by proteinase K in the presence of 0.01% SDS. Morelloflavone was then extracted into ethyl acetate and lyophilized.
For the analyses of intimal cell proliferation, apopotosis and ERK activation, Ki-67, Terminal deoxynucleotidyl transferase (TdT)-deoxyuridine nick-end labeling (TUNEL), and p-ERK staining, respectively, were performed. Ki-67 was detected using a monoclonal rabbit antibody (Clone TEC-3, DAKO North America, Inc., Carpinteria, Calif.) as described (8-9). Terminal deoxynucleotidyl transferase (TdT)-deoxyuridine nick-end labeling (TUNEL) staining (10) was performed using a FragEL™ DNA fragmentation detection kit (Oncogene Research Products, Boston, Mass.) according to the manufacturer's instructions. The Ki-67 and apoptotic indices, defined as the number of cells with DAB-positive nuclei divided by the total number of cells counted and expressed as a percentage, were then calculated. All cells within the intima were counted. Values are expressed as means±SD. Comparisons of parameters between two groups were made with Student's t test. When appropriate, ANOVA was performed to compare multiple groups. A value of P<0.05 was considered statistically significant.

[2] = Serum morelloflavone level by HPLC; assay type: in vivo, mouse; conditions: treated apoE−/− mice, oral 0.15% w/w diet, at sacrifice
Description: as §1
The quantification of morelloflavone was performed by HPLC as described with following modifications. The pure morelloflavone was diluted to varying concentrations ([…]), aliquoted into multiple tubes, and lyophilized. The samples were dissolved in […] of 25% acetonitrile/0.55% acetic acid 10 of which […] were injected into a Vydac C-18 reversed phase HPLC column (Grace Davison Discovery Sciences, Deerfield, Ill.) in an Agilent 1100 HPLC system (San Jose, Calif.). […] The limit of detection (LOD) is defined as the concentration of morelloflavone that yielded a signal to noise of 2:1, and was calculated at 1.06 mM, from the 20 mM standard peak (signal to noise=37.6:1). […]

Analysis of lipids = assay type: in vivo, mouse; conditions: Ldlr−/−Apobec1−/− mice, morelloflavone diet 8 months
Description: Plasma levels of triglycerides, total cholesterol, phospholipids, and non-esterified fatty acids of control and morelloflavone-treated animals were measured and using commercially available kits according to manufacturer's instruction (Randox Laboratories, Crumlin, UK; Thermo Fisher Scientific, Waltham, Mass.; Wako Chemicals, Richmond, Va.).

## O=C1c2c(O)cc(O)cc2O[C@H](c2ccc(O)cc2)[C@H]1c1c(O)cc(O)c2c(=O)cc(-c3ccc(O)c(O)c3)oc12 [morelloflavone, 5,7, 4′, 5″, 7″, 3″, 4″-heptahydroxy-[3,8″]-flavonylflavanone]
[1]
  phosphorylation of FAK: inhibited; also recorded: robustly decreased phosphorylation; also recorded: blocks
apoE−/− mice; Injured carotid artery
  External elastic lamina area: 103000 ± 14300 µm²
  Internal elastic lamina area: 70000 ± 11100 µm²
  Luminal area: 62100 ± 10700 µm²
  Medial area: 39300 ± 15100 µm²
  Neointimal area: 7860 ± 4050 µm²
apoE−/− mice; Injured carotid artery, listed as Morelloflavone
  Neointimal area: 7860 ± 4050 µm²
apoE−/− mice; Uninjured carotid artery
  External elastic lamina area: 93100 ± 9140 µm²
  Internal elastic lamina area: 62900 ± 5900 µm²
  Luminal area: 62300 ± 5900 µm²
  Medial area: 30200 ± 14400 µm²
apoE−/− mice; neointima of injured carotid artery
  Ki-67 indices: 0.17±0.41%
apoE−/− mice; neointima of injured carotid artery, index expressed as a percentage
  TUNEL indices: 16.0±4.6
apoE−/− mice; one out of 8 sections of treated animals
  sections with nuclear p-ERK signals in the neointima: 12.5%
apoE−/− mice; oral morelloflavone
  effect on ERK activation (p-ERK positivity) in the neointima: decreases ERK activation; also recorded: reduced p-ERK positivity; also recorded: less ERK activation
apoE−/− mice; oral, 0.15% w/w in chow, 7 days before and 14 days after injury, apoE−/− mice
  effect on injury-induced neointimal formation (restenosis): significantly less neointimal formation; also recorded: reduced neointimal formation; also recorded: significantly blocked injury-induced neointimal formation; also recorded: blocks restenosis
[2]
  serum concentration of morelloflavone: 1370 nM and 1400 nM
Analysis of lipids
  change in serum phospholipid concentration: no changes
  non-esterified fatty acid levels: 0.89±0.13
  serum cholesterol: 507.2 ± 95.8 mg/dL
  serum triglycerides: 179.9±28.0
